Measured values reported in the NIST ThermoML archive (doi:10.1021/je100472t).

Experiment: xn = mol fraction of the nth substance listed
Settings: 101 kPa, Liquid; for speed of sound: Pulse-echo method; for mass density: Vibrating tube method

c1ccncc1 [pyridine] + CCC(C)=O
Settings	mass density [kg/m3]	speed of sound [m/s]
293.15 K, x2 = 0.0584	972.18	1424.6
293.15 K, x2 = 0.101	964.232	1415.8
293.15 K, x2 = 0.1557	954.114	1404.3
293.15 K, x2 = 0.2073	944.625	1393.3
293.15 K, x2 = 0.2479	937.177	1384.6
293.15 K, x2 = 0.2928	929.036	1374.9
293.15 K, x2 = 0.3534	918.142	1361.8
293.15 K, x2 = 0.3992	909.88	1351.6
293.15 K, x2 = 0.4535	900.169	1339.5
293.15 K, x2 = 0.4962	892.606	1330
293.15 K, x2 = 0.5461	883.748	1318.7
293.15 K, x2 = 0.5481	883.417	1318.2
293.15 K, x2 = 0.6003	874.227	1306.4
293.15 K, x2 = 0.6425	866.814	1296.7
293.15 K, x2 = 0.6948	857.663	1284.5
293.15 K, x2 = 0.7267	852.119	1277.1
293.15 K, x2 = 0.7519	847.742	1271.2
293.15 K, x2 = 0.8053	838.532	1258.7
293.15 K, x2 = 0.855	829.934	1246.9
293.15 K, x2 = 0.8907	823.832	1238.4
293.15 K, x2 = 0.9459	814.255	1224.9
298.15 K, x2 = 0.0517	968.413	1405.7
298.15 K, x2 = 0.1009	959.234	1395.4
298.15 K, x2 = 0.151	949.923	1384.8
298.15 K, x2 = 0.1952	941.811	1375.4
298.15 K, x2 = 0.2473	932.304	1364.2
298.15 K, x2 = 0.301	922.495	1352.5
298.15 K, x2 = 0.3559	912.585	1340.4
298.15 K, x2 = 0.4041	903.885	1329.7
298.15 K, x2 = 0.4494	895.816	1319.6
298.15 K, x2 = 0.4994	886.914	1308.4
298.15 K, x2 = 0.5472	878.48	1297.6
298.15 K, x2 = 0.5916	870.664	1287.4
298.15 K, x2 = 0.6951	852.55	1263.5
298.15 K, x2 = 0.7563	841.861	1249.2
298.15 K, x2 = 0.8029	833.777	1238.1
298.15 K, x2 = 0.8525	825.199	1226.2
298.15 K, x2 = 0.8944	817.974	1216.2
298.15 K, x2 = 0.9525	808.018	1202.3
303.15 K, x2 = 0.0589	962.089	1384.7
303.15 K, x2 = 0.117	951.238	1372.5
303.15 K, x2 = 0.162	942.929	1362.9
303.15 K, x2 = 0.2056	934.925	1353.6
303.15 K, x2 = 0.2489	926.99	1344.2
303.15 K, x2 = 0.3075	916.353	1331.5
303.15 K, x2 = 0.3506	908.572	1322
303.15 K, x2 = 0.4016	899.409	1310.8
303.15 K, x2 = 0.4494	890.804	1300
303.15 K, x2 = 0.4959	882.52	1289.5
303.15 K, x2 = 0.5482	873.285	1277.7
303.15 K, x2 = 0.5967	864.734	1266.6
303.15 K, x2 = 0.6484	855.625	1254.6
303.15 K, x2 = 0.6972	847.054	1243.1
303.15 K, x2 = 0.7446	838.804	1232.1
303.15 K, x2 = 0.7952	829.99	1220
303.15 K, x2 = 0.8476	820.935	1207.6
303.15 K, x2 = 0.8928	813.143	1196.8
303.15 K, x2 = 0.9371	805.515	1186
